Source: ChEMBL document CHEMBL1201862, “PubChem BioAssay data set” (2004)
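Each compound was tested at five concentrations against cells in 96-well plates for 48 hours. Here, GI50 denotes the concentration required for 50% inhibition of growth.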 The source made the active and inactive calls. No stated cut-off is given here; in the data, active = GI50 up to about 1.1 µM and inactive = higher.

What was measured:
Assay in all cases: growth of human tumour cells (NCI), 48 h
[1] = test system: HCC 2998
[2] = test system: OVCAR-8
[3] = test system: OVCAR-3
[4] = test system: UACC-257
[5] = test system: A549
[6] = test system: ACHN
[7] = test system: SN12C
[8] = test system: Malme-3M
[9] = test system: NCI-H226
[10] = test system: KM12
[11] = test system: SF-295
[12] = test system: LOX IMVI
[13] = test system: DU-145
[14] = test system: NCI-H460
[15] = test system: HOP-62
[16] = test system: HCT-15
[17] = test system: RXF 393
[18] = test system: Hs-578T
[19] = test system: OVCAR-5
[20] = test system: SW-620

Row | Structure (SMILES) | GI50 [1] | GI50 [2] | GI50 [3] | GI50 [4] | GI50 [5] | GI50 [6] | GI50 [7] | GI50 [8] | GI50 [9] | GI50 [10] | GI50 [11] | GI50 [12] | GI50 [13] | GI50 [14] | GI50 [15] | GI50 [16] | GI50 [17] | GI50 [18] | GI50 [19] | GI50 [20]
1 | CCCCSC1=N/C(=C\c2ccccc2O)C(=O)N1 | 53.2 µM (inactive) | > 100 µM (inactive) | > 100 µM (inactive) | 31.2 µM (inactive) | 20.7 µM (inactive) | 40.3 µM (inactive) | 79.1 µM (inactive) | > 100 µM (inactive) | > 100 µM (inactive) | 49.8 µM (inactive) | 92 µM (inactive) | 84.3 µM (inactive) | > 100 µM (inactive) | 53.2 µM (inactive) | > 100 µM (inactive) | 96.6 µM | 50.5 µM (inactive) | > 100 µM (inactive) | > 100 µM (inactive) | > 100 µM (inactive)
2 | CCOc1ccc(/N=C/c2ccnc3ccccc23)cc1 | 32.4 µM (inactive) | 21.2 µM (inactive) | 31 µM (inactive) | 98.6 µM (inactive) | > 86.3 µM (inactive) | 58.2 µM (inactive) | 29 µM (inactive) | 75.9 µM (inactive) | 73.6 µM (inactive) | 19.7 µM (inactive) | 49.1 µM (inactive) | 13.2 µM (inactive) | 60.3 µM (inactive) | 61.7 µM (inactive) | 54.6 µM (inactive) | 11.5 µM | > 96.6 µM (inactive) | 40.4 µM (inactive) | 99.3 µM (inactive) | 4.56 µM (inactive)
3 | C=C1C(=O)CC2C(=O)C(C)(O)CC/C=C(\C)C(=O)CC12 (stereo not given) | > 100 µM (inactive) | 20.1 µM (inactive) | 17 µM (inactive) | 20 µM (inactive) | 60.1 µM (inactive) | 10.2 µM (inactive) | 15.2 µM (inactive) | 11.7 µM (inactive) | 6.07 µM (inactive) | 32.6 µM (inactive) | > 100 µM (inactive) | 16.3 µM (inactive) | 18.2 µM (inactive) | > 100 µM (inactive) | > 78.9 µM (inactive) | 13.6 µM | 14.4 µM (inactive) | 2.96 µM (inactive) | 20.7 µM (inactive) | 6.37 µM (inactive)
4 | O=C(Cc1ccc2ccccc2c1)NCc1ccc(C(=O)NCCc2ccccc2)cc1 | > 100 µM (inactive) | > 100 µM (inactive) | > 100 µM (inactive) | > 100 µM (inactive) | > 100 µM (inactive) | > 100 µM (inactive) | > 100 µM (inactive) | > 100 µM (inactive) | > 100 µM (inactive) | > 100 µM (inactive) | > 100 µM (inactive) | > 100 µM (inactive) | > 100 µM (inactive) | > 100 µM (inactive) | > 100 µM (inactive) | > 100 µM | > 100 µM (inactive) | > 100 µM (inactive) | > 100 µM (inactive) | > 100 µM (inactive)
5 | COC(=O)c1ccccc1/C=C1/Cc2cccc(C)c2C1=O | > 100 µM (inactive) | > 100 µM (inactive) | > 100 µM (inactive) | > 100 µM (inactive) | > 100 µM (inactive) | 57.5 µM (inactive) | > 100 µM (inactive) | > 100 µM (inactive) | > 100 µM (inactive) | > 100 µM (inactive) | 42 µM (inactive) | > 100 µM (inactive) | > 100 µM (inactive) | > 100 µM (inactive) | 31 µM (inactive) | > 100 µM | 41.2 µM (inactive) | 39.7 µM (inactive) | > 100 µM (inactive) | > 100 µM (inactive)
6 | CCN1C(=O)C(=C/C=C/c2ccc(OC)cc2)C(=O)N(CC)C1=S | 53.2 µM (inactive) | 21.4 µM (inactive) | 16.6 µM (inactive) | 16 µM (inactive) | > 100 µM (inactive) | 17.7 µM (inactive) | 18.2 µM (inactive) | 12.5 µM (inactive) | 32.9 µM (inactive) | 20.3 µM (inactive) | 60.4 µM (inactive) | 17.3 µM (inactive) | 19.1 µM (inactive) | 30.7 µM (inactive) | 18.6 µM (inactive) | 17.5 µM | 17.2 µM (inactive) | 15.7 µM (inactive) | > 100 µM (inactive) | 20.8 µM (inactive)
7 | CCC1(O)C(=O)OCc2c1cc1n(c2=O)Cc2cc3ccc(C=O)cc3nc2-1 (stereo not given) | 4.62 µM (inactive) | 1.96 µM (inactive) | 4.51 µM (inactive) | 6.19 µM (inactive) | 2.13 µM (inactive) | 0.713 µM (active) | 0.387 µM (active) | 4.33 µM (inactive) | 1.58 µM (inactive) | > 86.5 µM (inactive) | 3.23 µM (inactive) | 0.472 µM (active) | 0.466 µM (active) | 0.493 µM (active) | 0.294 µM (active) | 6.08 µM | 2.2 µM (inactive) | 17.8 µM (inactive) | 7.29 µM (inactive) | 1.03 µM (active)
